The values below are quoted from earlier work in patent publication US6881247B2, “Protective barrier coating composition” (priority 2003, dated 2005).

For the data set the following is noted: calcium hydroxide.

In the case of `[Ca+2].[OH-].[OH-]` [calcium hydroxide, Calcium hydroxide], the pH was 12.4.
